Two compounds from patent publication US20130245075A1, “MELANOGENESIS INHIBITION-METHODS AND COMPOSITIONS THEREOF” (priority 2012, published 2013) can be followed below.

The subject of this experiment is B16 F1 mouse melanoma cells. The experiment can be described thus: Melanogenesis inhibition: intracellular melanin in α-MSH/cAMP-induced B16F1 cells. The format is cell-based. Particulars: B16-F1, 216 h, melanin induced by α-MSH/cAMP, 9 days treatment, melanin extracted by 1N NaOH, absorbance 405 nm, read-out: IC50 (inhibition of melanin formation). As for the experimental part: The intracellular melanin in B16 F1 mouse melanoma cells treated with varying concentrations of the sample is extracted by 1N NaOH. The brown colored melanin thus extracted is estimated at 405 nm. This brown color intensity of the melanin is quenched in the presence of the inhibitor. B16F1 mouse melanoma cells are cultured for 24 hours in a 6 well microtiter plate at a seeding density of 5000 cells per well. Melanin production is induced by α-MSH/cAMP after which the cells are treated with varying non-cytotoxic concentrations of the sample over a period of 9 days with sample treatment at regular intervals of 3 days. The melanin is extracted by 1N NaOH and the absorbance read at 405 nm in a Microplate reader. The inhibitory effect of the sample is calculated based on the degree of inhibition of melanin formation. The results are expressed as IC50 values using Graph pad prism software. The percentage of inhibition of melanin is calculated as follows % Inhibition=C−T/C×100 Where, C-absorbance due to melanin in untreated cells; T-absorbance due to melanin in sample treated cells

Converted amounts (≈) assume the structure as drawn.

For the compound `O=c1cc(CO)occ1O` [Kojic acid], the IC50 (in general, the concentration that gives 50% inhibition) was determined as 100 µg/mL (≈ 704 µM).
The same measure for `COc1cc(/C=C/C(=O)N2CCC=CC2=O)cc(OC)c1OC` [piperlongumine]: 0.625 µg/mL (≈ 1.97 µM).
